Article PMC6701825, “Antiproliferative and Antimigratory Effects of a Novel YAP–TEAD Interaction Inhibitor Identified Using in Silico Molecular Docking” (Journal of Medicinal Chemistry, 2019)

How the values were obtained:
[1] = tested on: TEAD-independent minimal TNT1 gene promoter; experiment: Minimal TNT1 promoter-luciferase (minP-LUC) reporter in RaVSMCs; format: cell-based, rat; conditions: 6 h
Method: Figure 3 Compound 3 inhibits TEAD target gene expression, cell proliferation, and cell migration. HeLa cells (A) and RaVSMCs (B) were transfected with CCN1-LUC, CTGF-LUC or minimal promoter-LUC (minP-LUC) reporter plasmids and treated with indicated concentrations of compound 3 for 6 h. Cell lysates were assayed for fire-fly luciferase activity (n = 3). HeLa cells (C) and RaVSMCs (D) were treated with indicated concentrations of compound 3 for 18 h, followed by a 6 h labeling with 10 μM EdU (n = 4). HeLa cells (E) and RaVSMCs (F) were treated with the indicated concentrations of compound 3 and migration quantified using a real-time IncuCyte scratch wound assay (n = 4). * = p < 0.05, ** = p < 0.01, *** = p < 0.001.
TNT1-minP reporter containing the Troponin-T minimal promoter was generated by digesting 8xGTIIC-luciferase plasmid (Addgene #34615) with Kpn1 and BglII to remove the TEAD elements, followed by blunt end re-ligation. A 2.177 kb fragment of the human CCN1 promoter containing two proximal TEAD elements (Hg19;chr1:86044316–chr1:86046493) was described previously[39] and cloned into pGL4-luciferase (Promega). The proximal promoter regions of the CTGF (Hg19;chr6:132272455–132272687) promoter, containing a consensus TEAD-binding element, was amplified by PCR from human genomic DNA and cloned into the Kpn1 and Nhe1 sites of pGL4-luciferase. […]

[2] = target: T1, TEAD1 (Homo sapiens, UniProt P28347); experiment: GAL4-TEAD1 fusion / 5xGAL4-secNLUC reporter in HeLa cells; format: cell-based; conditions: 100 μM, 6 h
T1 construct: #18881 (FLAG-YAP); host or cells: HeLa
T1 sequence (P28347 whole entry, the tested form may be a part): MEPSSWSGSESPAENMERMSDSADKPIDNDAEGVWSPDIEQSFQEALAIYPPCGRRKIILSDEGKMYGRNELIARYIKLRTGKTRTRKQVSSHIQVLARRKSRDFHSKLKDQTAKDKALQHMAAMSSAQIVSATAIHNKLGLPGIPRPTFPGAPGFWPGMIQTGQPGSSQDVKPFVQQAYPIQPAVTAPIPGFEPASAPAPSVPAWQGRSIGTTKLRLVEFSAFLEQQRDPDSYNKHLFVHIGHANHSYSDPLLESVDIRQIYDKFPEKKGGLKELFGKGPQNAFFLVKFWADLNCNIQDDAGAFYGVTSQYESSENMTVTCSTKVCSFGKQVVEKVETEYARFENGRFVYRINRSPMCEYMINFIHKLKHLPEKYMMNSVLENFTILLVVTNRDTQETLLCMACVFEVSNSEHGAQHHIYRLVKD
Text: (§1) TEAD proteins (TEAD1–4) display a high degree of sequence conservation in residues that create the hydrophobic pocket that is essential for YAP binding.[51] YAP proteins also display a high degree of conservation in residues that interact with this pocket.[51] We therefore tested whether CPD3.1 was able to inhibit YAP-induced activity of TEAD1, TEAD2, TEAD3, and TEAD4. To quantify the effect of CPD3.1 on the activity of each individual TEAD paralog, while excluding interference from endogenously expressed TEAD1–4 proteins, we expressed each TEAD paralog (TEAD1–4) fused to the yeast GAL4 DNA-binding domain. Cells were transfected with the GAL4–TEAD expression vector together with a secreted nanoluciferase reporter gene vector under control of a promoter containing five GAL4 DNA-binding elements. This system allows us to study the effect of CPD3.1 on the activity of each individual TEAD protein in isolation, without interference from endogenously expressed transcription factors. In addition, the cells were co-transfected with a YAP expression vector to activate the GAL4–TEAD fusion-dependent transcription (see Supplement Figure 9). Basal activities of TEAD1, TEAD2, TEAD3, and TEAD4 were inhibited by CPD3.1 (Figure 7A–D). […]
(§2) Figure 7 Compound 3.1 inhibits TEAD1, TEAD2, TEAD3, and TEAD4 activities. […] Secreted nano-luciferase activity was quantified in the conditioned media. […]

[3] = target: T2, TEAD2 (Homo sapiens, UniProt Q15562); experiment: GAL4-TEAD2 fusion / 5xGAL4-secNLUC reporter in HeLa cells; format: cell-based; conditions: 100 μM, 6 h
T2 construct: #18881 (FLAG-YAP); host or cells: HeLa
T2 sequence (Q15562 whole entry, the tested form may be a part): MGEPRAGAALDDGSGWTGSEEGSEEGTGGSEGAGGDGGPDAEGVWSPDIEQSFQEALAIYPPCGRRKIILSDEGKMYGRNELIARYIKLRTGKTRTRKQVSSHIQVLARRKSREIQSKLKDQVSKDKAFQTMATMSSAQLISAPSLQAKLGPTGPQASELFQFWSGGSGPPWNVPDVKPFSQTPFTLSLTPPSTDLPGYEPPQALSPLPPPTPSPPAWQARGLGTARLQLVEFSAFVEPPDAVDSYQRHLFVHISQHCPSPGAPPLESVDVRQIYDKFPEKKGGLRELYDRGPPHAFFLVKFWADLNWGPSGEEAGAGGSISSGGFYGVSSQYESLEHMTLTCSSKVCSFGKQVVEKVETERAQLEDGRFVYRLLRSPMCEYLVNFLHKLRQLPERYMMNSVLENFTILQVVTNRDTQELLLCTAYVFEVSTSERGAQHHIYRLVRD
Text: as §1, §2

[4] = target: T3, TEAD4 (Homo sapiens, UniProt Q15561); experiment: GAL4-TEAD4 fusion / 5xGAL4-secNLUC reporter in HeLa cells; format: cell-based; conditions: 100 μM, 6 h
T3 construct: #18881 (FLAG-YAP); host or cells: HeLa
T3 sequence (Q15561 whole entry, the tested form may be a part): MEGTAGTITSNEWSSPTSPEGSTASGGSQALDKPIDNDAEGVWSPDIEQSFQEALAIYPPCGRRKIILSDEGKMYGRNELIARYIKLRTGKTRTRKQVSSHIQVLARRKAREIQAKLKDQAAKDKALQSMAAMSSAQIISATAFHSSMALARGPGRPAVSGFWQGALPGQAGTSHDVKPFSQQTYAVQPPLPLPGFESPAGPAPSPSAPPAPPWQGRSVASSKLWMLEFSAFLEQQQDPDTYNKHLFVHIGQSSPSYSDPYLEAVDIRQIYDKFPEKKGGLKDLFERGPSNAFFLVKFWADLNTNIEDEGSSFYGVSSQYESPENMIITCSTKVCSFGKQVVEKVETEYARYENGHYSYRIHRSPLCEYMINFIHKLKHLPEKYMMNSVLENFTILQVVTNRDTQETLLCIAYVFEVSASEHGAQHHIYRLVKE
Text: as §1, §2

Row | Compound | activity of TEAD-independent minimal TNT1 promoter (minP-LUC) [1] | basal activity of GAL4-TEAD1 [2] | YAP-stimulated activity of GAL4-TEAD1 ([2]; YAP overexpression) | basal activity of GAL4-TEAD2 [3] | YAP-stimulated activity of GAL4-TEAD2 ([3]; YAP overexpression) | basal activity of GAL4-TEAD4 [4] | YAP-stimulated activity of GAL4-TEAD4 ([4]; YAP overexpression)
1 | Cc1ccc2c(c1)c1c3n2CCN(CC(O)CN2CCN(C(=O)c4ccco4)CC2)C3CCC1 (stereo not shown) [CPD3] | not inhibited by any concentration | – | – | – | – | – | –
2 | Cc1ccc2c(c1)c1c3n2CCNC3CCC1 (stereo not shown) [CPD3.1] | – | inhibited | significantly inhibited | inhibited | significantly inhibited | inhibited | significantly inhibited
